Series [1] deals with A549 cancer cells. The series can be described thus: MTT cell viability assay, dark or photoactivated. It counts as cell-based, human. The conditions noted are these: A549, MTT; for IC50: 4 h incubation. The procedure: Cells were cultured in 96-well plates at a density of 3000 (A549), 2500 (HeLa), or 5000 (PC-3, 1BR.3.G, and MRC-5) cells per well in cell culture medium and allowed to attach for 24 h. Solutions of the complexes at different concentrations were prepared for cell treatments. In all cases, the solid compounds were weighed using an analytical balance (Mettler Toledo AX205DR) to ensure precise measurements. Subsequently, 5 mM solutions were prepared using DMSO. Solutions were then diluted in water to reach a concentration of 1 mM and then, aliquots were taken and diluted in culture medium to obtain solutions ranging from 0 to 50 μM. […] The cells were treated with these solutions in dark conditions or following the photoactivation protocol (see below). 48 h later the treatments were removed, and cells were washed with phosphate-buffered saline (PBS).
Initially, the effect of the complexes on the cell viability was determined by the 3-(4,5-dimethylthiazol-2-yl)-2,5-diphenyltetrazolium bromide (MTT) assay.[147] The cells were incubated for 2 h with 100 μL of culture medium together with 10 μL of MTT (Sigma-Aldrich) at 0.5 mg/mL. After discarding the medium, DMSO was added to each well to dissolve the purple formazan crystals. The absorbance of each well was determined on a Multiscan Plate Reader (Synergy 4, Biotek, Winooski) at a wavelength of 570 nm. Cell viability was also assessed using the CyQUANT Direct Cell Proliferation Assay (Thermo Fisher Scientific), following the manufacturer’s instructions. Briefly, after the treatments, the cells were washed with PBS, and an equal volume of culture medium and CyQUANT mix was added to each well. The plates were then incubated for 1 h at 37 °C. Subsequently, the fluorescence intensity was bottom read using a Multiscan Plate Reader (Synergy 4, Biotek, Winooski) with excitation and emission filters of 485 and 528 nm, respectively. In both assays, at least three replicates were measured for each treatment. The concentration that reduces the cell viability by 50% (IC50) was established using the Gen5 software (BioTek). Three independent experiments were carried out for each compound. […] The phototoxicity index (PI = IC50,dark/IC50,light) was determined.
To assess the photodynamic activity of the complexes, cells were incubated with the complexes for 4 h to enable their intracellular accumulation. The cells were then irradiated with light with a wavelength of 460 nm (blue), 530 nm (green), or 655 nm (red) for 1 h using a LED system (LuxLight) with an effective power of 6.7 mW cm^–2, which provides a total light dose of 24.1 J cm^–2. The LED system was positioned at 25 mm from the cell culture plates.
A general note: Tetrazolium dyes change colour on reduction, which living cells bring about.

Series [2] relates to porcine red blood cells (RBC). The series can be described thus: Hemolytic activity (hemoglobin release). It counts as cell-based. Particulars: dark, 1 hour. The procedure:
The hemolytic activities of the complexes were determined by measuring hemoglobin release from porcine red blood cells (RBC). First, fresh porcine blood commercially obtained was diluted to 5% v/v in PBS solution and washed three times with PBS by centrifugation at 1000 rcf for 10 min. Then, RBC suspension (150 μL) was mixed with 150 μL of each complex at concentrations ranging from 1 to 50 μM. A solution of 0.2% Triton X-100 in PBS was used as positive control to induce complete hemolysis. PBS alone was used as negative control. Samples were incubated at 37 °C for 1 h in an orbital shaker (50 rpm) and then centrifuged at 3500 rcf for 10 min. 80 μL aliquots of the supernatant were transferred to a 96-well plate and diluted with 80 μL of Milli-Q water. Hemolysis was evaluated by measuring the absorbance of the samples at 540 nm with a Synergy 4 plate reader (BioTek, Winooski). The percentage of hemolysis (H) was calculated using eq 4: [drawing 25] 4 where As is the absorbance for a given sample, An is the absorbance for the negative control, and Ap is the absorbance for the positive control. Each sample was tested in triplicate.

The subject of series [3] is A549 cells. The series can be described thus: Cell death mechanism (Annexin V-FITC / propidium iodide). It counts as cell-based, human. Particulars: positive control 50 μM for 24 h. The procedure: The cell death mechanism was analyzed with the Vybrant Apoptosis Assay Kit (Molecular Probes). A549 cells seeded in 12-well plates at a density of 1 × 10^5 cells per well were treated with complex 6 at the corresponding IC50,light × 5 under photoactivation conditions. Cisplatin at 50 μM was used as positive control. 4 and 20 h after the irradiation, cells were collected by trypsinization and immediately stained with Annexin V-FITC and propidium iodide according to the manufacturer’s instructions. The median fluorescence of 10,000 cells of each sample was analyzed by flow cytometry. Annexin-FITC staining was detected at a wavelength of 520 nm (FL1) and propidium iodide was detected at 617 nm (FL2).

In series [4] the test system is A549 cells. The series can be described thus: Mitochondrial membrane potential (JC-1, flow cytometry). Type of series: cell-based, human. Particulars: positive control, 5 μM, 30 min. The procedure: A549 cells were seeded onto 24-well plates. 24 h later, cells were incubated for 4 h with complexes 2, 4, 6, and 8 at 10 nM and then photoactivated or kept in the dark for an additional hour. Next, the cells were washed with PBS and harvested by trypsinization. Mitochondrial membrane potential changes were immediately measured by the JC-1 (5,5′,6,6′-tetrachloro-1,1′,3,3′-tetraethylbenzimidazolocarbo-cyanine iodide) Mitochondrial Membrane Potential Detection Kit (Biotium), according to the manufacturer’s instructions. As positive control, the cells were coincubated with CCCP (Sigma) at 5 μM for 30 min to disrupt the mitochondrial membrane potential. For each treatment, the fluorescence of 1 × 10^4 cells was analyzed by a Novocyte flow cytometer. JC-1 red aggregates were detected at a wavelength of 590 nm (FL2) and JC-1 green monomers at 529 nm (FL1).
For orientation: In flow cytometry, cells or beads pass a laser one at a time.

Series [5] in a line: Photocatalytic NADH oxidation (UV-vis). It counts as biochemical. Details: key: TON = ΔNADH concentration after 1 h / photocatalyst concentration. The conditions noted are these: first hour, complex 2.5 μM, NADH 100 μM. The procedure:
Fresh stock solutions of the complexes at 7.50 μM in H2O/MeOH mixture (97.5/2.5, v/v) and NADH at 300 μM in H2O/MeOH mixture (97.5/2.5, v/v) were prepared. In a quartz cell, 1 mL of complex solution, 1 mL of NADH solution, and 1 mL of solvent mixture were mixed to prepare a final solution with 2.50 μM complex and 100 μM NADH (complex/NADH rate = 1/40). The solutions were studied by recording UV–vis absorption spectra in dark conditions and under blue light irradiation (λexc = 470 nm, “Medusa” photoreactor) at ambient temperature and various time intervals for 8 h. In addition, a solution of NADH at 100 μM was studied under blue light irradiation to confirm its photostability. The photocatalytic rate of the photosensitizers was evaluated by monitoring its absorbance decrease at 340 nm, which correspond to NADH oxidation.
The turnover numbers (TONs) of complexes were calculated by measuring the absorption difference at 340 nm after 1 h of reaction. TON was calculated from the difference in NADH concentration after 1 h divided by the concentration of photocatalyst (eq 5), where b is the optical path length (1 cm). The concentration of NADH was obtained using the extinction coefficient ε340 = 5751 M^–1 cm^–1.[40],[148] [drawing 26] 5

Series [6] concerns calf thymus DNA (CT-DNA). In words: Competitive EtBr displacement assay. Particulars: CT-DNA saturated with EtBr; 1 h, room temperature; read-out: C50 (50% reduction of EtBr fluorescence). It counts as binding. The procedure: To investigate the capacity of the complexes to intercalate into DNA, the competitive ethidium displacement assay was carried out as previously described[149] with minor modifications. Stock solutions of 20 μM calf thymus DNA (CT-DNA) and 25 μM Ethidium bromide (EtBr) were prepared in saline TE (50 mM NaCl, 10 mM tris(hydroxymethyl) aminomethane–HCl, 0.1 mM ethylenediaminetetracetic acid (EDTA), pH 7.4). Serial dilutions of metal complexes were prepared at concentrations ranging from 20 to 400 μM from a 1 mM stock solution containing 20% DMSO. The assay was carried out by mixing 25 μL of CT-DNA and 25 μL of EtBr with 50 μL of each compound dilution, on a black 96-well plate. The plate was incubated at room temperature for 1 h and the fluorescence was measured on a Synergy 4 microplate reader (Biotek, Winooski), with excitation wavelength set to 500 nm, and emission wavelength set to 530–800 nm. The fluorescence emission at 590 nm was used to measure the C50, corresponding to the concentration of compound required to induce a 50% decrease in the fluorescence of the EtBr. Experiments were performed in triplicate.

Series [7] is described as follows: 1O2 quantum yield determination with DPBF. Particulars: acetonitrile; 470 nm blue light. The procedure:
It was performed for complexes 1–8 in acetonitrile according to a relative procedure adapted from the literature[132]−[134] based on monitoring the oxidation of 1,3-diphenylisobenzofuran (DPBF, yellow) to 1,2-dibenzoylbenzene (colorless) photosensitized by the Ir(III) complexes. DPBF was used as an ^1O2 scavenger due to its fast reaction with this molecule. Fresh stock air-equilibrated solutions of photosensitizers (6.00 × 10^–6 M) and DPBF (1.50 × 10^–4 M) in acetonitrile were prepared. In a quartz cell, 1 mL of DPBF solution, 0.5 mL of complex solution, and 1.5 mL of acetonitrile were mixed to prepare a final solution with 5.00 × 10^–5 M DPBF and 1.00 × 10^–6 M complex. The final solutions were studied by recording UV–vis absorption spectra at room temperature in dark conditions (over a period of 6 min with time intervals of 2 min), under blue light irradiation (λexc = 470 nm, “Medusa” photoreactor) and under green light irradiation (λexc = 530 nm, “Medusa” photoreactor) for 5 s irradiation intervals during a total exposure period of 20 s. Absorption UV–vis spectra were recorded after every irradiation interval.
The consumption of DPBF probe was measured by monitoring its absorbance intensity decrease at 410 nm with irradiation time. ^1O2 generation quantum yield (ϕΔ) was calculated from eq 1 using Rose Bengal or [Ru(bpy)3]^2+ as reference for complexes with pbpz and pbpn ligands, respectively: [drawing 22] 1 where s and ref subscripts correspond to the complex and the reference, ϕΔ is the ^1O2 generation quantum yield (0.53 for Rose Bengal[135] and 0.56 for [Ru(bpy)3]Cl2[132] in degassed acetonitrile), S is the slope of the plots of the −ln(normalized absorbance) of DPBF at 410 nm vs the irradiation time, and F is the correction factor of absorption, which is given by F = 1–10^–O.D. (where O.D. is the optical density at 470 nm of solutions of complexes and references). The reproducibility of the results was confirmed by performing each experiment three times.
The stability of DPBF probe was studied in dark conditions and under light irradiation. In dark conditions and under green light irradiation the probe remains unaltered. However, under blue light irradiation, a photobleaching of DPBF was observed. Probe consumption was approximately 6.5% every 5 s. Therefore, a working interval of 20 s was chosen, where 75% of the probe remains stable. To calculate the ϕΔ, a correction factor was applied to the absorbance at 410 nm: a 6.5% of the previous value was added to each absorbance to counteract self-consumption of the probe (i.e., to the absorbance at 10 s, a 6.5% of the absorbance at 5 s was added).

The subject of series [8] is CT26. More on the design: method as in p (Pozza et al., Inorg. Chem. 2023). Particulars: 540 nm, dose 9 J cm‐2, ref p (Pozza et al., Inorg. Chem. 2023); cited from earlier work.
[9] abbreviates: kept in the dark, viability after 48 h, read-out: IC50 dark.
Where [10] appears, read: blue light 460 nm 1 h (24.1 J cm^–2), 48 h, read-out: IC50 blue light.

Like-named read-outs stand apart in the source and are kept apart here.

Data on five compounds can be found in article PMC10859961, “Ir(III) Half-Sandwich Photosensitizers with a π-Expansive Ligand for Efficient Anticancer Photodynamic Therapy” (Journal of Medicinal Chemistry, 2024).

Turning to `N.N.[Cl][Pt][Cl]` [Cisplatin, reference compound], in series [1] (setting [9]), the IC50 worked out at 8.9 ± 2 µM. The Hemolytic activity in series [2] (1 μM) was determined as 0%; in series [2] (5 μM), 0%; in series [2] (10 μM), 0%; in series [2] (25 μM), 0.2%. The “cells in early apoptosis (AN+; IP−), lower right quadrant” value in series [3] came to 5.3%. The “cells in late apoptosis (AN+; IP+), upper right quadrant” value in series [3] amounted to 26.1%. Moreover, the “cells in necrosis (AN–; IP+), upper left quadrant” value in series [3] amounted to 6.6%.
Take `N#CC(C#N)=NNc1cccc(Cl)c1` [CCCP, carbonyl cyanide m-chlorophenyl hydrazone, reference compound]: the “cells with red fluorescence (JC-1 aggregates), upper right quadrant” value in series [4] is given as 21.9%.
For the compound `Cc1c(C)c(C)[c-](C)c1C.F[B-](F)(F)F.c1ccc2nc3c4ccc[n+]5c4c4[c](cccc4c3nc2c1)[Ir]5[n+]1cc[nH]c1` [complex 3, [(η^5-C5Me5)Ir(Im)(pbpz)]BF4], the IC50 in series [1] (setting [10]) is 1.2 ± 0.1 µM; in series [1] (green light 530 nm 1 h (24.1 J cm^–2), 48 h, read-out: IC50 green light), 2.5 ± 0.3 µM; in series [1] (setting [9]) it was 4.9 ± 0.7 µM; in series [6], 16.1 µM. In addition, the “PI green light (IC50,dark/IC50,light)” value in series [1] (green light 530 nm, 24.1 J cm^–2) was 2.0. The “TON1h (NADH oxidation)” value in series [5] (470 nm blue light) is 2.28; in series [5] (dark) it was 0.47. Besides, in series [7], the “1O2 generation quantum yield (ϕΔ), DPBF” value came to 0.0399.
Regarding [(η^5-C5Me5)Ir(bhq)Cl] [complex 10], the IC50 in series [1] (setting [10]) is 5.6 ± 0.4 µM; in series [1] (setting [9]) it was 10 ± 0.3 µM. Further, the “PI blue light (IC50,dark/IC50,light)” value in series [1] (blue light 460 nm, 24.1 J cm^–2) is listed as 1.8.
As to `[Ru+2].c1ccc(-c2ccnc3c2ccc2c(-c4ccccc4)ccnc23)cc1.c1ccc(-c2ccnc3c2ccc2c(-c4ccccc4)ccnc23)cc1.c1cnc2c(c1)ccc1cccnc12` [[Ru(DIP)2(phen)]2+], in series [8], the PI is on record as 1111 and the PI/Dose is 123.4.
